Entries after “also recorded” stand apart in the source; their conditions may differ. Like-named read-outs stand apart in the source and are kept apart here.
Experiments:
[1] = test system: U2OS.eGFP.PEST cells and HEK293T cells; experiment: Cell viability (ATP content); settings: 5-20 μM, 24 h
SpCas9:gRNA complex = target: T1, SpCas9:gRNA complex (Streptococcus pyogenes serotype M1, UniProt Q99ZW2); experiment: 19F NMR binding assay; parameters: species or system S. pyogenes; settings: for receptor occupancy at 50 µM: read-out: Fractional Occupancy
T1 construct: made in house; host or cells: E. coli Rosetta (DE3)
Method: Table 8 NMR parameters used for analysis of BRD7087 binding to SpCas9:gRNA complex. The binding study of BRD7087 to SpCas9:gRNA complex was analyzed based on the method described by Shortridge et. al. The linewidth (LW) increases with increasing SpCas9:gRNA concentration, as expected. Peak intensity values were used to measure the fractional occupancy using the equation Fractional Occupancy=(1−Ibound/I0), where I0 is the intensity of the peak with no protein in the sample. The peak area remains relatively constant, as expected for a fixed concentration of ligand.
NMR binding assay. All samples were prepared with 50 μM BRD7087 in 20 mM Tris buffer (pH 7.4) with varying concentrations of SpCas9:gRNA in a 3 mm NMR tube. Experiments were performed on a 600 MHZ (^19F: 564.71 MHZ) Bruker Avance III NMR spectrometer equipped with a 5 mm QCI-F CryoProbe and a SampleJet for automated sample handling. To acquire spectra, a standard one-pulse ^19F experiment with WALTZ-16 for proton decoupling during acquisition, a 5 second recycle delay, and 256 scans were used. All spectra were recorded at 280 K. NMR data were apodized with a 1 Hz exponential function prior to Fourier transformation. All spectra were baseline corrected, and peak widths and intensities were extracted using the automated line-fitting feature provided with the MNova software package.

[2] = Aggregation by dynamic light scattering in PBS; settings: 40-100 μM tested
SpCas9 [3] = target: T2, SpCas9 (Streptococcus pyogenes serotype M1, UniProt Q99ZW2); experiment: eGFP-disruption assay in U2OS.eGFP.PEST cells; type: cell-based, S. pyogenes; parameters: host or cells: U2OS.eGFP.PEST; settings: for inhibition of SpCas9 in the eGFP-disruption assay (in words) / inhibition at 15 µM: U2OS.eGFP.PEST cells; for inhibition at 15 µM: screen of structural analogs of BRD7087, 15 μM compound
Outline: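 U2OS.eGFP-PEST cells were nucleofected with SpCas9 plus eGFP Site #1 sgRNA, as plasmids or as preformed RNP (20 pmol). Compound or DMSO was present for 24 h post-transfection. Fixed cells were imaged with a nuclear counterstain, and the % GFP-negative cell population was quantified by automated microscopy.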

Plasma stability assay = type: in vitro ADME; settings: 5 μM, 50% human plasma in PBS, 5 h
Method: Plasma stability assay. Human plasma stability of the compounds was performed following a reported protocol (Di et al., 2005). BRD0539 (5 μM) was incubated with 50% human plasma (K2 EDTA, BioreclamationIVT) in PBS for 5 h in triplicate. Eucatropine (Aldrich) and verapamil (Acros) were included as the positive and negative control, respectively. The samples were analyzed by UPLC-MS (AB Sciex 4500 with Waters Acquity FTN) with compounds detected by […] mass spectrometer. All integration and analysis were performed using DiscoveryQuant software.

SpCas9 [4] = target: T2, SpCas9; experiment: Reversibility of SpCas9 inhibition (pulse-chase, eGFP-disruption assay); type: cell-based, S. pyogenes; parameters: made in house; host or cells: E. coli Rosetta (DE3); settings: 15 μM BRD0539 or SpCas9:gRNA:AcrIIA4 complex, media swap 2-24 h
Method: Reversal of BRD0539-mediated inhibition of SpCas9 was performed in the eGFP-disruption assay where 2×10^5 U2OS.eGFP.PEST cells were nucleofected with preformed SpCas9:gRNA complex as previously discussed. Approximately 22,000 transfected cells/well were plated in 4 replicates in a 96-well plate (Corning® 3904) along with 15 μM of BRD0539 or DMSO. For AcrIIA4 reversibility experiment, a preformed SpCas9:gRNA (10 pmol) was incubated with AcrIIA4 (5×) for 10 min and then nucleofected to U2OS.eGFP.PEST cells following the aforementioned protocol. The media were swapped with the fresh media containing no BRD0539/AcrIIA4 at the indicated time point (2-24 h) and the cells were allowed to grow until 24 h post-nucleofection. Cells were then fixed using 4% paraformaldehyde and imaged with the HCS NuclearMask™ Blue Stain (Life Technologies) as the nuclear counter-staining agent. Imaging was performed with an ImageXpress Micro automated microscope (Molecular Devices) at 10× magnification under three excitation channels (blue, green and red) acquiring nine sites per well. Images were analyzed using MetaXpress software and data were plotted using GraphPad Prism 6.

[5] = 50 μM BRD7087, 0.75 μM SpCas9:gRNA
[6] = 50 μM BRD7087, 1.0 μM SpCas9:gRNA
[7] = 50 μM BRD7087, 1.25 μM SpCas9:gRNA
[8] = 50 μM BRD7087, 1.5 μM SpCas9:gRNA
[9] = 50 μM BRD7087, 1.75 μM SpCas9:gRNA

T2 sequence (Q99ZW2 whole entry): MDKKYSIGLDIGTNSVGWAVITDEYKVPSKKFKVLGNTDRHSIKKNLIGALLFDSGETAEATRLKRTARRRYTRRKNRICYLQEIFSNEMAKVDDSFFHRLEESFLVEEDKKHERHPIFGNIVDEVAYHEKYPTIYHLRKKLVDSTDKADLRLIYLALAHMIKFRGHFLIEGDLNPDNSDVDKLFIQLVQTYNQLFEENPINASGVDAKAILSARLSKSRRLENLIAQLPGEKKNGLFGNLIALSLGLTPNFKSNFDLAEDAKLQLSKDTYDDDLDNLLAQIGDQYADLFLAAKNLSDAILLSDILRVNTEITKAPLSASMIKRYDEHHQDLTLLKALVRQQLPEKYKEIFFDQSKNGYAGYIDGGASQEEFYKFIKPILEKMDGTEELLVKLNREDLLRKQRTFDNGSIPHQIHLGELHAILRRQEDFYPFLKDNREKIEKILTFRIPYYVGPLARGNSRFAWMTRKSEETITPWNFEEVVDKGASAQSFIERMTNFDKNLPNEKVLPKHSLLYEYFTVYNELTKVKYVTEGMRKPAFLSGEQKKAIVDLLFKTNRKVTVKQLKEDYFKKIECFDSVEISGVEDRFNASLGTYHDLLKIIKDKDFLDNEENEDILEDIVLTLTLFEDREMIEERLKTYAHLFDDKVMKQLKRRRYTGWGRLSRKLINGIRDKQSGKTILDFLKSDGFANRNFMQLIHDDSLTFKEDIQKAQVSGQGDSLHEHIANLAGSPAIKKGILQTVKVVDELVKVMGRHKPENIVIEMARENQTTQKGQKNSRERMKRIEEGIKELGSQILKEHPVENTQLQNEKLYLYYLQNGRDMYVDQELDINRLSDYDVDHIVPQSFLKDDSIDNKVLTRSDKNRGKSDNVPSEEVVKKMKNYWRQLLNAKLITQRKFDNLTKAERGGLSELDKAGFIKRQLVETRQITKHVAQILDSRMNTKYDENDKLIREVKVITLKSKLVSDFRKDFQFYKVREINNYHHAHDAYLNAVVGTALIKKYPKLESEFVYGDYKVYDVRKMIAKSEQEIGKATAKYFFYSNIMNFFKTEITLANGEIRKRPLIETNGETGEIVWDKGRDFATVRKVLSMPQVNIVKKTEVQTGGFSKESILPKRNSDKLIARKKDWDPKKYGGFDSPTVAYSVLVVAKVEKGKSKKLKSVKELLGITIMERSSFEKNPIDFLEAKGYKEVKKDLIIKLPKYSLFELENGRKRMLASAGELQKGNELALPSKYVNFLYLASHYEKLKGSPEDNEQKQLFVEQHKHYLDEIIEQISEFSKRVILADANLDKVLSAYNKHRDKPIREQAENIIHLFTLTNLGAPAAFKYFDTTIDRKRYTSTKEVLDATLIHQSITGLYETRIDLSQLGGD
T1 sequence (Q99ZW2 whole entry, one chain of several): as the sequence (Q99ZW2 whole entry) above

## OC[C@H]1Nc2ccc(-c3cccc(F)c3)cc2[C@H]2[C@@H]1CCN2Cc1ccncc1 [BRD7087, ((3aR,4S,9bR)-8-(3-Fluorophenyl)-1-(pyridin-4-ylmethyl)-2,3,3a,4,5,9b-hexahydro-1H-pyrrolo[3,2-c]quinolin-4-yl) methanol]
[1]
  cytotoxicity (in words): non-cytotoxic
SpCas9:gRNA complex; [5]
  LW (linewidth of 19F signal): 4.3 Hz
  receptor occupancy at 50 µM: 13.1%
SpCas9:gRNA complex; [6]
  LW (linewidth of 19F signal): 4.6 Hz
  receptor occupancy at 50 µM: 18.2%
SpCas9:gRNA complex; [7]
  LW (linewidth of 19F signal): 5.3 Hz
  receptor occupancy at 50 µM: 30.4%
SpCas9:gRNA complex; [8]
  LW (linewidth of 19F signal): 5.9 Hz
  receptor occupancy at 50 µM: 34.4%
SpCas9:gRNA complex; [9]
  LW (linewidth of 19F signal): 6.3 Hz
  receptor occupancy at 50 µM: 40.1%
SpCas9:gRNA complex; significant broadening at protein concentrations as low as 0.75 μM
  binding to SpCas9:gRNA by 19F line broadening (in words): tight binding
[2]
  concentration beyond which aggregates form: > 80 µM
  no detectable aggregation up to: ~60 µM
SpCas9 [3]
  inhibition of SpCas9 in the eGFP-disruption assay (in words): dose-dependent inhibition
SpCas9 [3]; read-out: inhibition of SpCas9
  inhibition at 10 µM: ~44%

## Cc1ccc(S(=O)(=O)N2CC[C@@H]3[C@H](CO)Nc4ccc(-c5ccccc5F)cc4[C@@H]32)cc1 [BRD0539, ((3aR,4R,9bR)-8-(2-fluorophenyl)-1-tosyl-2,3,3a,4,5,9b-hexahydro-1H-pyrrolo[3,2-c]quinolin-4-yl) methanol]
Plasma stability assay
  human plasma stability (in words): stable in human plasma
SpCas9 [4]
  reversibility of SpCas9 inhibition (in words): reversible inhibition
SpCas9 [3]; EC50, dose-dependent inhibition of SpCas9, U2OS.eGFP.PEST cells, 24 h, tested from 2.8-17.3 μM
  EC50: 11.5 µM
SpCas9 [3]
  inhibition of SpCas9 in the eGFP-disruption assay (in words): dose-dependent inhibitory activity; also recorded: able to inhibit
SpCas9 [3]; eGFP-disruption assay
  improvement in potency over BRD7087: 1.8 fold
SpCas9 [3]; eGFP-disruption assay, read-out: apparent EC50
  EC50: 11 µM
SpCas9 [3]; 24 h, read-out: Average Inhibition activity
  inhibition at 15 µM: 64.2%
SpCas9 [3]; 24 h, read-out: Inhibition activity Rep 1
  inhibition at 15 µM: 61%
SpCas9 [3]; 24 h, read-out: Inhibition activity Rep 2
  inhibition at 15 µM: 67.4%
SpCas9 [3]; tested from 2.5-15 μM, 24 h
  potency among the four stereoisomers: most potent

Reference: patent publication US12391685B2, “Inhibitors of RNA-guided nuclease target binding and uses thereof” (THE BROAD INSTITUTE, INC., priority 2018, dated 2025)
